Values quoted from earlier work in patent publication US7332183B2, “Multilayer dosage forms containing NSAIDs and triptans” (Pozen Inc., priority 2002, dated 2008).

Conditions: in vivo

| half life | SMILES |
| --- | --- |
| about 7 hours | CCc1cccc2c3c([nH]c12)C(CC)(CC(=O)O)OCC3 (stereo not shown) [etodolac] |
| about 6 hours | CC(C(=O)O)c1ccc(-c2ccccc2)c(F)c1 (stereo not shown) [flurbiprofen] |
| about 4 hours | Cc1cccc(Nc2ccccc2C(=O)O)c1C [mefanamic acid] |
| about 17 hours | CS(=O)(=O)c1ccc(C2=C(c3ccccc3)C(=O)OC2)cc1 [rofecoxib] |
